Assay results taken from US11820766B2, “Monoacylglycerol lipase modulators” (Janssen Pharmaceutica NV, priority 2018, dated 2023).

molecular target: T1, human MGL from HeLa cells (Homo sapiens, UniProt Q99685); test: In vitro MGL activity assay: [glycerol-1,3-3H]-oleyl glycerol cleavage by MGL from HeLa cells; assay type: biochemical; conditions: 300 nM [Glycerol-1,3-3H]-oleyl glycerol, one hour
T1 construct: combining endogenously expressed MGL from HeLa cells with test compounds; endogenous in cells; host or cells: HeLa cells / cell homogenates
T1 sequence (Q99685 1-303): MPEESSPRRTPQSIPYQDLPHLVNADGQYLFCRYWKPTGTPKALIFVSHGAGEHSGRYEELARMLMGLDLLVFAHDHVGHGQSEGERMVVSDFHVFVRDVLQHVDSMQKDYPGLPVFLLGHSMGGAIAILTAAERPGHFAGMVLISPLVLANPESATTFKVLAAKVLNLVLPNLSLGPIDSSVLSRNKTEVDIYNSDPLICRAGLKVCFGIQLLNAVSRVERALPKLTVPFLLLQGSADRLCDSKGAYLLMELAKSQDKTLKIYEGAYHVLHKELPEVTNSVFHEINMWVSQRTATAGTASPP
Source text: MGL is the predominant hydrolase in HeLa cells/cell homogenates.

SMILES	IC50 [nM]
C[C@H]1c2nn(C)c(-c3cc(F)c(F)c(F)c3)c2CCN1C(=O)c1cnc(-c2ccccn2)n1C [Example 602, [(7S)-2,7-Dimethyl-3-(3,4,5-trifluorophenyl)-5,7-dihydro-4H-pyrazolo[3,4-c]pyridin-6-yl]-[3-methyl-2-(2-pyridyl)imidazol-4-yl]methanone]	460
C[C@H]1c2nn(C)c(-c3cc(F)c(F)c(F)c3)c2CCN1C(=O)c1c(F)cccc1-n1cccn1 [Example 603, [(7S)-2,7-Dimethyl-3-(3,4,5-trifluorophenyl)-5,7-dihydro-4H-pyrazolo[3,4-c]pyridin-6-yl]-(2-fluoro-6-pyrazol-1-yl-phenyl)methanone]	114
C[C@H]1c2nn(C)c(-c3cc(F)c(F)c(F)c3)c2CCN1C(=O)c1cccc2c1OC1(CC1)CN2 [Example 604, [(7S)-2,7-Dimethyl-3-(3,4,5-trifluorophenyl)-5,7-dihydro-4H-pyrazolo[3,4-c]pyridin-6-yl]-spiro[3,4-dihydro-1,4-benzoxazine-2,1′-cyclopropane]-8-yl-methanone]	102
C[C@H]1c2nn(C)c(-c3cc(F)c(F)c(F)c3)c2CCN1C(=O)c1ncnc2c1ncn2C [Example 606, [(7S)-2,7-Dimethyl-3-(3,4,5-trifluorophenyl)-5,7-dihydro-4H-pyrazolo[3,4-c]pyridin-6-yl]-(9-methylpurin-6-yl)methanone]	724
C[C@H]1c2nn(C)c(-c3cc(F)cc(C(F)F)c3)c2CCN1C(=O)c1ccc2c(c1)OCCC2 [Example 610, Chroman-7-yl-[(7S)-3-[3-(difluoromethyl)-5-fluoro-phenyl]-2,7-dimethyl-5,7-dihydro-4H-pyrazolo[3,4-c]pyridin-6-yl]methanone]	29.4
COc1cc(F)cc(-c2c3c(nn2C)[C@H](C)N(C(=O)c2ccc4c(c2)OCCC4)CC3)c1 [Example 611, Chroman-7-yl-[(7S)-3-(3-fluoro-5-methoxy-phenyl)-2,7-dimethyl-5,7-dihydro-4H-pyrazolo[3,4-c]pyridin-6-yl]methanone]	25.6
COc1ccnc(C(=O)N2CCc3c(nn(C)c3-c3cc(F)cc(OC(F)F)c3)[C@@H]2C)c1Cl [Example 612, (3-Chloro-4-methoxy-2-pyridyl)-[(7S)-3-[3-(difluoromethoxy)-5-fluoro-phenyl]-2,7-dimethyl-5,7-dihydro-4H-pyrazolo[3,4-c]pyridin-6-yl]methanone]	29.8
COc1cc(F)cc(-c2c3c(nn2C)[C@H](C)N(C(=O)c2ccnc(OC)c2C)CC3)c1 [Example 613, [(7S)-3-(3-Fluoro-5-methoxy-phenyl)-2,7-dimethyl-5,7-dihydro-4H-pyrazolo[3,4-c]pyridin-6-yl]-(2-methoxy-3-methyl-4-pyridyl)methanone]	27.8
COc1cc(F)cc(-c2c3c(nn2C)[C@H](C)N(C(=O)c2nccc(OC)c2Cl)CC3)c1 [Example 614, (3-Chloro-4-methoxy-2-pyridyl)-[(7S)-3-(3-fluoro-5-methoxy-phenyl)-2,7-dimethyl-5,7-dihydro-4H-pyrazolo[3,4-c]pyridin-6-yl]methanone]	35.9
Cc1nc(C(=O)N2CCc3c(nn(C)c3-c3cc(F)c(F)c(F)c3)[C@@H]2C)c2cnn(C)c2n1 [Example 617, (S)-(1,6-Dimethyl-1H-pyrazolo[3,4-d]pyrimidin-4-yl)(2,7-dimethyl-3-(3,4,5-trifluorophenyl)-2,4,5,7-tetrahydro-6H-pyrazolo[3,4-c]pyridin-6-yl)methanone]	32.4

These reach a lower IC50. Values come first.

IC50 [nM]	SMILES
1.1	C[C@H]1c2nn(C)c(-c3cc(F)c(F)c(F)c3)c2CCN1C(=O)c1ccnc2[nH]cc(F)c12 [Example 605, [(7S)-2,7-Dimethyl-3-(3,4,5-trifluorophenyl)-5,7-dihydro-4H-pyrazolo[3,4-c]pyridin-6-yl]-(3-fluoro-1H-pyrrolo[2,3-b]pyridin-4-yl)methanone]
18.2	COc1cncc(F)c1C(=O)N1CCc2c(nn(C)c2-c2cc(F)c(F)c(F)c2)[C@@H]1C [Example 607, [(7S)-2,7-Dimethyl-3-(3,4,5-trifluorophenyl)-5,7-dihydro-4H-pyrazolo[3,4-c]pyridin-6-yl]-(3-fluoro-5-methoxy-4-pyridyl)methanone]
21.7	COc1ccnc(C(=O)N2CCc3c(nn(C)c3-c3cc(F)cc(C(F)F)c3)[C@@H]2C)c1Cl [Example 608, (3-Chloro-4-methoxy-2-pyridyl)-[(7S)-3-[3-(difluoromethyl)-5-fluoro-phenyl]-2,7-dimethyl-5,7-dihydro-4H-pyrazolo[3,4-c]pyridin-6-yl]methanone]
22.7	COc1nccc(C(=O)N2CCc3c(nn(C)c3-c3cc(F)cc(C(F)F)c3)[C@@H]2C)c1C [Example 609, [(7S)-3-[3-(Difluoromethyl)-5-fluoro-phenyl]-2,7-dimethyl-5,7-dihydro-4H-pyrazolo[3,4-c]pyridin-6-yl]-(2-methoxy-3-methyl-4-pyridyl)methanone]
18.2	Cc1nc2ccc(C3CC3)cn2c1C(=O)N1CCc2c(nn(C)c2-c2cc(F)c(F)c(F)c2)[C@@H]1C [Example 618]
